Results published in the supplement of paper PMC4862054.

Assays:
Conditions in all cases: incubation time: 72 h
MDA-MB-231 = test: drug sensitivity score (DSS), CellTiter-Glo (DSS (AUC-based score)); higher = stronger drug effect (viability inhibition or cytotoxicity); extreme values may be limits of the assay
How it was run: (§1)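 In 384-well plates, compound was laid out at 5 concentrations in 10-fold steps over a 10,000-fold range specific to each compound, and breast cancer cell lines were seeded on top in 20 µl suspension for a 72 h incubation. CellTox Green fluorescence and then CellTiter-Glo luminescence were read, and each plate was normalised to 0.1 % DMSO and a positive kill control. The drug sensitivity score was calculated from the area under the fitted dose-response curve.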

BT-549 [1] = test: as above
How it was run: as §1

DU-4475 = test: as above
How it was run: as §1

MDA-MB-468 = test: as above
How it was run: as §1

HDQ-P1 [2] = test: as above
How it was run: as §1

Hs578T [3] = test: as above
How it was run: as §1

CAL-51 = test: as above
How it was run: as §1

MCF-10A = test: as above
How it was run: as §1

SK-BR-3 = test: as above
How it was run: as §1

MFM-223 [4] = test: as above
How it was run: as §1

MDA-MB-436 [5] = test: as above
How it was run: as §1

BT-474 [6] = test: as above
How it was run: as §1

MDA-MB-453 [7] = test: as above
How it was run: as §1

CAL-85-1 = test: as above
How it was run: as §1

HCC1143 = test: as above
How it was run: as §1

CAL-120 [8] = test: as above
How it was run: as §1

HCC1937 = test: as above
How it was run: as §1

BT-549 [9] = test: drug sensitivity score (DSS), CellTox Green (DSS (AUC-based score)); higher = stronger drug effect (viability inhibition or cytotoxicity); extreme values may be limits of the assay
How it was run: as §1

HDQ-P1 [10] = test: as above
How it was run: as §1

Hs578T [11] = test: as above
How it was run: as §1

HCC1599 = test: as above
How it was run: as §1

CAL-148 = test: as above
How it was run: as §1

MFM-223 [12] = test: as above
How it was run: as §1

MDA-MB-436 [13] = test: as above
How it was run: as §1

BT-474 [14] = test: as above
How it was run: as §1

MDA-MB-453 [15] = test: as above
How it was run: as §1

CAL-120 [16] = test: as above
How it was run: as §1

Structure (SMILES) | drug sensitivity score (MDA-MB-231) | drug sensitivity score (BT-549 [1]) | drug sensitivity score (DU-4475) | drug sensitivity score (MDA-MB-468) | drug sensitivity score (HDQ-P1 [2]) | drug sensitivity score (Hs578T [3]) | drug sensitivity score (CAL-51) | drug sensitivity score (MCF-10A) | drug sensitivity score (SK-BR-3) | drug sensitivity score (MFM-223 [4]) | drug sensitivity score (MDA-MB-436 [5]) | drug sensitivity score (BT-474 [6]) | drug sensitivity score (MDA-MB-453 [7]) | drug sensitivity score (CAL-85-1) | drug sensitivity score (HCC1143) | drug sensitivity score (CAL-120 [8]) | drug sensitivity score (HCC1937) | drug sensitivity score (BT-549 [9]) | drug sensitivity score (HDQ-P1 [10]) | drug sensitivity score (Hs578T [11]) | drug sensitivity score (HCC1599) | drug sensitivity score (CAL-148) | drug sensitivity score (MFM-223 [12]) | drug sensitivity score (MDA-MB-436 [13]) | drug sensitivity score (BT-474 [14]) | drug sensitivity score (MDA-MB-453 [15]) | drug sensitivity score (CAL-120 [16])
CN[C@@H]1C[C@H]2O[C@@](C)([C@@H]1OC)n1c3ccccc3c3c4c(c5c6ccccc6n2c5c31)C(=O)N[C@H]4O [UCN-01] | 28.1 | 21.6 | 19.9 | 23.7 | 18.8 | 27.5 | 23.9 | 27.8 | 24 | 16.6 | 20.9 | 26 | 17.3 | 22.6 | 19.7 | 24.9 | 18.8 | 9.46 | 14.7 | 17.7 | 0 | 3.4 | 6.67 | 0 | 7.59 | 1.04 | 9.11
CO[C@H]1/C=C\C=C(/C)C(=O)NC2=CC(=O)C(NCCN(C)C)=C(C[C@@H](C)C[C@H](OC)[C@H](O)[C@@H](C)/C=C(\C)[C@@H]1OC(N)=O)C2=O [Alvespimycin] | 13.3 | 16.1 | 17.6 | 11.9 | 14 | 10.6 | 13.4 | 14.9 | 14.5 | 13.1 | 13.1 | 11.6 | 15.3 | 13.9 | 12.1 | 8.6 | 12.6 | 0 | 4.4 | 7.05 | 0 | 9.12 | 0 | 0 | 4.58 | 0.783 | 0.117
Cc1ccc(-n2nc(C(C)(C)C)cc2NC(=O)Nc2ccc(OCCN3CCOCC3)c3ccccc23)cc1 [Doramapimod] | 0 | 0 | 0 | 2.44 | 1.32 | 0 | 0 | 0 | 0 | 2.15 | 0 | 1.64 | 1.59 | 0 | 0 | 0 | 0 | 0 | 0 | 3.19 | 0 | 0 | 0 | 2.62 | 0 | 0 | 0
COc1cc([C@@H]2c3cc4c(cc3[C@@H](O[C@@H]3O[C@@H]5CO[C@@H](C)O[C@H]5[C@H](O)[C@H]3O)[C@H]3COC(=O)[C@H]23)OCO4)cc(OC)c1O [Etoposide] | 0.846 | 5.14 | 9.9 | 5.45 | 0.733 | 2.84 | 8.68 | 0 | 9.09 | 0 | 7.41 | 3.57 | 0 | 0.96 | 4.37 | 2.02 | 0 | 0 | 0 | 20.3 | 0 | 5.65 | 0 | 0 | 0 | 0 | 1.57
CCC1=C[C@@H]2CN(C1)Cc1c([nH]c3ccccc13)[C@@](C(=O)OC)(c1cc3c(cc1OC)N(C)[C@H]1[C@@](O)(C(=O)OC)[C@H](OC(C)=O)[C@]4(CC)C=CCN5CC[C@]31[C@@H]54)C2 [Vinorelbine] | 13.7 | 20.7 | 6.47 | 24.8 | 7.16 | 19.8 | 17.1 | 10.2 | 37.5 | 16 | 21.9 | 12.3 | 15.6 | 19.8 | 15.6 | 13.2 | 8.42 | 4.21 | 0 | 23.3 | 2.9 | 9.47 | 12.7 | 3.27 | 10 | 0 | 1.84
COc1cc2nccc(Oc3ccc(NC(=O)C4(C(=O)Nc5ccc(F)cc5)CC4)cc3)c2cc1OC [Cabozantinib] | 0 | 0 | 0 | 0 | 0 | 0 | 0 | 0 | 0 | 0 | 0 | 1.14 | 0 | 0 | 0 | 0 | 0 | 0 | 0 | 0 | 0 | 0 | 0 | 0 | 0 | 0 | 0
CN(N=O)C(=O)N[C@@H](C=O)[C@@H](O)[C@H](O)[C@H](O)CO [Streptozocin] | 0 | 0 | 0 | 0 | 0 | 0 | 0 | 0 | 0 | 0 | 0 | 0 | 0 | 0 | 0 | 0 | 0 | 0 | 0 | 0 | 0 | 0 | 0 | 0 | 0 | 0 | 0
COc1cc2ncnc(Nc3ccc(F)c(Cl)c3)c2cc1NC(=O)/C=C/CN1CCCCC1 [Dacomitinib] | 0.139 | 1.11 | 0 | 3.31 | 8.45 | 0 | 0 | 16.9 | 14.6 | 0 | 0.907 | 0.458 | 5.43 | 8.62 | 0 | 0 | 0 | 0 | 0 | 0 | 0 | 0 | 0 | 2.58 | 6.2 | 0 | 0
N.N.[Cl][Pt][Cl] [Cisplatin] | 0 | 0 | 0 | 0 | 0 | 0 | 0 | 0 | 0 | 0 | 0 | 0 | 0 | 0 | 0 | 0 | 0 | 0 | 0 | 0 | 0 | 0 | 0 | 0 | 0 | 0 | 0
CNCc1ccc(-c2[nH]c3cc(F)cc4c3c2CCNC4=O)cc1 [Rucaparib] | 0 | 0.12 | 0 | 2.43 | 0 | 0 | 0 | 0 | 0 | 0 | 1.14 | 1.39 | 0 | 0 | 0 | 0 | 0 | 0 | 0 | 1.33 | 0 | 0 | 0 | 0 | 0 | 0 | 0
CC1(C)NC(=O)N(c2ccc([N+](=O)[O-])c(C(F)(F)F)c2)C1=O [Nilutamide] | 0 | 0 | 0 | 0 | 0 | 0 | 2.72 | 0 | 0 | 0 | 0 | 0 | 0 | 0 | 0 | 0 | 0 | 0 | 0 | 0 | 0 | 0 | 0 | 0 | 0 | 0 | 0
CCC1(c2ccc(N)cc2)CCC(=O)NC1=O (centres undefined) [Aminoglutethimide] | 0 | 0 | 0 | 0 | 0 | 0 | 0 | 0 | 0 | 0 | 0 | 0 | 0 | 0 | 0 | 0 | 0 | 0 | 0 | 0 | 0 | 0 | 0 | 0 | 0 | 0 | 0
